# Measurements published in ChEMBL document CHEMBL5338713, “Discovery of pomalidomide-based PROTACs for selective degradation of histone deacetylase 8” (Eur J Med Chem, 2022).
# Activity calls are given as the source filed them. No cut-off for these calls is given here.
# Biological target: T1, Histone deacetylase 8 (Homo sapiens, UniProt Q9BY41)
# T1 sequence (Q9BY41 whole entry): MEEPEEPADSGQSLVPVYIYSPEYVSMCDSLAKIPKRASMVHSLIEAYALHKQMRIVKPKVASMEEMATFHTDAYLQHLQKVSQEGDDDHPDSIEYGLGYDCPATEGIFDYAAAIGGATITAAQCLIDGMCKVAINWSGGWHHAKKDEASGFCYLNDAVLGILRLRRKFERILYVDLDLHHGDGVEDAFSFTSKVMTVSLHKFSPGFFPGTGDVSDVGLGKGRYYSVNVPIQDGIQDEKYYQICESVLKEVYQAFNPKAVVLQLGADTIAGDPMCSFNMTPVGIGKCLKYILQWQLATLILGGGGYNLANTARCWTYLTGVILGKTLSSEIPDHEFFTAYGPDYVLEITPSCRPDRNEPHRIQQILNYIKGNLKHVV
# Experiment: Induction of HDAC8 degradation in human HCT-116 cells measured after 10 hrs by Western blot analysis
# Assay type: cell-based
# Settings: not given
row,DC50 [nM],Compound
1,441,O=C(CCCCOc1ccc(CCNC(=O)c2cccc(C(=O)NO)c2)cc1)NCCCCCCNc1ccc2c(c1)C(=O)N(C1CCC(=O)NC1=O)C2=O (configuration not stated)
2,876,O=C1CCC(N2C(=O)c3cccc(N4CCC(N5CCN(C(=O)CCCCOc6ccc(CCNC(=O)c7cccc(C(=O)NO)c7)cc6)CC5)CC4)c3C2=O)C(=O)N1 (configuration not stated)

# Biological target: Protein cereblon/Histone deacetylase 8 (Homo sapiens) (UniProt Q9BY41+Q96SW2)
# Experiment: PROTAC activity at HDAC8/CRBN in human HCT-116 cells assessed as degradation of HDAC8 at 5 uM by Western blot analysis
# Assay type: cell-based
# Settings: not given
# Sequence of Protein cereblon/Histone deacetylase 8 (Homo sapiens) (Q96SW2 whole entry, looked up, one chain of several): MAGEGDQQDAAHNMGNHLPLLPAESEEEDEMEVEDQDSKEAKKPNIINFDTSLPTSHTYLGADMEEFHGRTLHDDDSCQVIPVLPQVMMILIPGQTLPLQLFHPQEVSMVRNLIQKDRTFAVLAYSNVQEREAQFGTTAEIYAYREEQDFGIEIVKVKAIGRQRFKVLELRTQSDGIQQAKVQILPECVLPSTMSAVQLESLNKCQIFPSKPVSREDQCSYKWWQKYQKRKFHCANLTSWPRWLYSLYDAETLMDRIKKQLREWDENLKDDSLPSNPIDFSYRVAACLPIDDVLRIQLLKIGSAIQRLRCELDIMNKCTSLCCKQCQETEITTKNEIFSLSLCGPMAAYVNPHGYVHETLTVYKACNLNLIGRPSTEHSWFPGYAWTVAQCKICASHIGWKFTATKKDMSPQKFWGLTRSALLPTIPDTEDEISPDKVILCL
row,Activity,Compound
1,inactive,O=C(CCCCOc1ccc(CCNC(=O)c2cccc(C(=O)NOC3CCCCO3)c2)cc1)NCCCCCCNc1cccc2c1C(=O)N(C1CCC(=O)NC1=O)C2=O (configuration not stated)
2,inactive,CN1C(=O)CCC(N2C(=O)c3cccc(NCCCCCCNC(=O)CCCCOc4ccc(CCNC(=O)c5cccc(C(=O)NO)c5)cc4)c3C2=O)C1=O (configuration not stated)

# Biological target: T2, Histone deacetylase 8 (Homo sapiens) (UniProt Q9BY41)
# T2 sequence (whole entry): T1 sequence (Q9BY41 whole entry)
# Experiment: Induction of HDAC8 degradation in human HCT-116 cells assessed as maximum degradation at 0.1 to 160 uM measured after 10 hrs by Western blot analysis relative to control
# Assay type: cell-based
# Settings: dose 0.1-160 µM
row,Emax [%],Compound
1,77,O=C(CCCCOc1ccc(CCNC(=O)c2cccc(C(=O)NO)c2)cc1)NCCCCCCNc1ccc2c(c1)C(=O)N(C1CCC(=O)NC1=O)C2=O (configuration not stated)
2,91,O=C1CCC(N2C(=O)c3cccc(N4CCC(N5CCN(C(=O)CCCCOc6ccc(CCNC(=O)c7cccc(C(=O)NO)c7)cc6)CC5)CC4)c3C2=O)C(=O)N1 (configuration not stated)

# Biological target: T2, Histone deacetylase 8 (Homo sapiens)
# Experiment: Induction of HDAC8 degradation in human HCT-116 cells at 5 uM by Western blot analysis relative to control
# Assay type: cell-based
# Settings: not given
row,Compound,Activity [%]
1,O=C(CCCCCCOc1ccc(CCNC(=O)c2cccc(C(=O)NO)c2)cc1)NCCCCCNc1cccc2c1C(=O)N(C1CCC(=O)NC1=O)C2=O (configuration not stated),23.7
2,O=C(CCCOc1ccc(CCNC(=O)c2cccc(C(=O)NO)c2)cc1)NCCCNc1cccc2c1C(=O)N(C1CCC(=O)NC1=O)C2=O (configuration not stated),21.2
3,Nc1cccc2c1C(=O)N(C1CCC(=O)NC1=O)C2=O (configuration not stated),-11
4,O=C1CCC(N2C(=O)c3cccc(N4CC(N5CCN(C(=O)CCCCOc6ccc(CCNC(=O)c7cccc(C(=O)NO)c7)cc6)CC5)C4)c3C2=O)C(=O)N1 (configuration not stated),59.6
5,O=C(COc1ccc(CCNC(=O)c2cccc(C(=O)NO)c2)cc1)NCCCCCNc1cccc2c1C(=O)N(C1CCC(=O)NC1=O)C2=O (configuration not stated),10.7
6,O=C(CCCCCOc1ccc(CCNC(=O)c2cccc(C(=O)NO)c2)cc1)NCCCCCCNc1cccc2c1C(=O)N(C1CCC(=O)NC1=O)C2=O (configuration not stated),45.2
7,O=C1CCC(N2C(=O)c3cccc(N4CCC(CN5CCN(C(=O)CCCCOc6ccc(CCNC(=O)c7cccc(C(=O)NO)c7)cc6)CC5)CC4)c3C2=O)C(=O)N1 (configuration not stated),48.3
8,O=C(NO)c1cccc(C(=O)NCCc2ccccc2)c1,-22
9,O=C1CCC(N2C(=O)c3cccc(N4CCN(C5CCN(C(=O)CCCCOc6ccc(CCNC(=O)c7cccc(C(=O)NO)c7)cc6)CC5)CC4)c3C2=O)C(=O)N1 (configuration not stated),43.2
10,O=C(CCCOc1ccc(CCNC(=O)c2cccc(C(=O)NO)c2)cc1)NCCNc1cccc2c1C(=O)N(C1CCC(=O)NC1=O)C2=O (configuration not stated),44.3
11,O=C(COc1ccc(CCNC(=O)c2cccc(C(=O)NO)c2)cc1)NCCNc1cccc2c1C(=O)N(C1CCC(=O)NC1=O)C2=O (configuration not stated),25.8
12,O=C(COc1ccc(CCNC(=O)c2cccc(C(=O)NO)c2)cc1)NCCCCNc1cccc2c1C(=O)N(C1CCC(=O)NC1=O)C2=O (configuration not stated),43.6
13,O=C(CCCCOc1ccc(CCNC(=O)c2cccc(C(=O)NO)c2)cc1)NCCCCCCNc1ccc2c(c1)C(=O)N(C1CCC(=O)NC1=O)C2=O (configuration not stated),68.9
14,O=C1CCC(N2C(=O)c3cccc(N4CCC(N5CCN(C(=O)CCCCOc6ccc(CCNC(=O)c7cccc(C(=O)NO)c7)cc6)CC5)CC4)c3C2=O)C(=O)N1 (configuration not stated),74.4
15,O=C1CCC(N2C(=O)c3cccc(N4CC(CN5CCN(C(=O)CCCCOc6ccc(CCNC(=O)c7cccc(C(=O)NO)c7)cc6)CC5)C4)c3C2=O)C(=O)N1 (configuration not stated),56.3
16,O=C1CCC(N2C(=O)c3cccc(N4CCN(C(=O)CCCCOc5ccc(CCNC(=O)c6cccc(C(=O)NO)c6)cc5)CC4)c3C2=O)C(=O)N1 (configuration not stated),57.9
17,O=C(COc1ccc(CCNC(=O)c2cccc(C(=O)NO)c2)cc1)NCCCCCCNc1cccc2c1C(=O)N(C1CCC(=O)NC1=O)C2=O (configuration not stated),54.5
18,O=C1CCC(N2C(=O)c3cccc(N4CCN(CC5CN(C(=O)CCCCOc6ccc(CCNC(=O)c7cccc(C(=O)NO)c7)cc6)C5)CC4)c3C2=O)C(=O)N1 (configuration not stated),6.54
19,O=C1CCC(N2C(=O)c3cccc(N4CCN(C5CN(C(=O)CCCCOc6ccc(CCNC(=O)c7cccc(C(=O)NO)c7)cc6)C5)CC4)c3C2=O)C(=O)N1 (configuration not stated),39.5
20,O=C(CCCOc1ccc(CCNC(=O)c2cccc(C(=O)NO)c2)cc1)NCCCCNc1cccc2c1C(=O)N(C1CCC(=O)NC1=O)C2=O (configuration not stated),20.8
21,O=C1CCC(N2C(=O)c3cccc(N4CCN(CC5CCN(C(=O)CCCCOc6ccc(CCNC(=O)c7cccc(C(=O)NO)c7)cc6)CC5)CC4)c3C2=O)C(=O)N1 (configuration not stated),43.6
22,O=C(CCCOc1ccc(CCNC(=O)c2cccc(C(=O)NO)c2)cc1)NCCCCCCNc1cccc2c1C(=O)N(C1CCC(=O)NC1=O)C2=O (configuration not stated),49.6
23,O=C(COc1ccc(CCNC(=O)c2cccc(C(=O)NO)c2)cc1)NCCCNc1cccc2c1C(=O)N(C1CCC(=O)NC1=O)C2=O (configuration not stated),32
24,O=C(CCCCCCOc1ccc(CCNC(=O)c2cccc(C(=O)NO)c2)cc1)NCCCCCCNc1cccc2c1C(=O)N(C1CCC(=O)NC1=O)C2=O (configuration not stated),25.6

# The next lines start with the values.
row,Activity [%],Compound
1,30.5,O=C(CCCCCCOc1ccc(CCNC(=O)c2cccc(C(=O)NO)c2)cc1)NCCCNc1cccc2c1C(=O)N(C1CCC(=O)NC1=O)C2=O (configuration not stated)
2,33.4,O=C(CCCOc1ccc(CCNC(=O)c2cccc(C(=O)NO)c2)cc1)NCCCCCNc1cccc2c1C(=O)N(C1CCC(=O)NC1=O)C2=O (configuration not stated)
3,72.9,O=C(CCCCOc1ccc(CCNC(=O)c2cccc(C(=O)NO)c2)cc1)NCCCCCNc1cccc2c1C(=O)N(C1CCC(=O)NC1=O)C2=O (configuration not stated)
4,65.2,O=C(CCCCCCOc1ccc(CCNC(=O)c2cccc(C(=O)NO)c2)cc1)NCCNc1cccc2c1C(=O)N(C1CCC(=O)NC1=O)C2=O (configuration not stated)
5,24.4,O=C(CCCCCOc1ccc(CCNC(=O)c2cccc(C(=O)NO)c2)cc1)NCCCCNc1cccc2c1C(=O)N(C1CCC(=O)NC1=O)C2=O (configuration not stated)
6,52.5,O=C(CCCCOc1ccc(CCNC(=O)c2cccc(C(=O)NO)c2)cc1)NCCNc1cccc2c1C(=O)N(C1CCC(=O)NC1=O)C2=O (configuration not stated)
7,16.9,O=C(CCCCCOc1ccc(CCNC(=O)c2cccc(C(=O)NO)c2)cc1)NCCCNc1cccc2c1C(=O)N(C1CCC(=O)NC1=O)C2=O (configuration not stated)
8,51.7,O=C(CCCCCOc1ccc(CCNC(=O)c2cccc(C(=O)NO)c2)cc1)NCCCCCNc1cccc2c1C(=O)N(C1CCC(=O)NC1=O)C2=O (configuration not stated)
9,25.8,O=C(CCCCOc1ccc(CCNC(=O)c2cccc(C(=O)NO)c2)cc1)NCCCNc1cccc2c1C(=O)N(C1CCC(=O)NC1=O)C2=O (configuration not stated)
10,53,O=C(CCCCOc1ccc(CCNC(=O)c2cccc(C(=O)NO)c2)cc1)NCCCCNc1cccc2c1C(=O)N(C1CCC(=O)NC1=O)C2=O (configuration not stated)
11,19.8,O=C(CCCCCCOc1ccc(CCNC(=O)c2cccc(C(=O)NO)c2)cc1)NCCCCNc1cccc2c1C(=O)N(C1CCC(=O)NC1=O)C2=O (configuration not stated)
12,72.9,O=C(CCCCCOc1ccc(CCNC(=O)c2cccc(C(=O)NO)c2)cc1)NCCNc1cccc2c1C(=O)N(C1CCC(=O)NC1=O)C2=O (configuration not stated)
